Laboratory results taken from ChEMBL document CHEMBL1130927, “Novel imidazole derivatives with subtype-selective antimuscarinic activity (2)” (Bioorg Med Chem Lett, 1998).

What was measured:
[1] = target: Muscarinic acetylcholine receptor M3 (Cavia porcellus) (UniProt Q8VH26); test: Antimuscarinic activity against M3 receptor of guinea pig ileum; format: tissue-based
[2] = tested on: Muscarinic acetylcholine receptors; M2 & M3; test: Selectivity ratio was calculated between Kb values at M2 and M3 muscarinic receptors; format: protein assay; details: Cavia porcellus
[3] = target: Muscarinic acetylcholine receptor M2 (Cavia porcellus); test: Antimuscarinic activity against M2 receptor of guinea pig atrium; details: Cardiac atrium

Muscarinic acetylcholine receptor M3 (Cavia porcellus), sequence (Q8VH26 1-587): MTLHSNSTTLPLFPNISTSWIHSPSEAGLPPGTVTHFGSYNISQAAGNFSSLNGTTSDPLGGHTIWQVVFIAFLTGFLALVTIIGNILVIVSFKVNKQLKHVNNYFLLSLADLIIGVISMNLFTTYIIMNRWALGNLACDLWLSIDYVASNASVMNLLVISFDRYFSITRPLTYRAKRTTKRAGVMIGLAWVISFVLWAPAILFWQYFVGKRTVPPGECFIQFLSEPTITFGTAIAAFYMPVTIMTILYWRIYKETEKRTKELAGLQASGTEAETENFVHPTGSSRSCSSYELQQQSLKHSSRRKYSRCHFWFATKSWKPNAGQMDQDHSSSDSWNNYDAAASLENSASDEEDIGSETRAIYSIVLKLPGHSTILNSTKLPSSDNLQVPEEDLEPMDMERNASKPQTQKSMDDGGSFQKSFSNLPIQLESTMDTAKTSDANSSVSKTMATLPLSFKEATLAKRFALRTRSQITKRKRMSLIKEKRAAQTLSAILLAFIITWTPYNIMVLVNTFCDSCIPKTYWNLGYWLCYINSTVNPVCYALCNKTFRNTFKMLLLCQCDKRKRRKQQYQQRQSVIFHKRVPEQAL

Row | Kb [1] | Ratio [2] | Kb [3] | Structure (SMILES)
1 | 19 nM | 31.7 | 603 nM | Cc1nccn1CCC(C(N)=O)(c1ccccc1)C1CCCCC1 (stereo unspecified)
2 | 25.4 nM | 3.3 | 83.8 nM | Cc1nccn1CCC(CO)(c1ccccc1)c1ccccc1
3 | 2140 nM |  |  | Cc1nccn1CCC(C(N)=O)C1c2ccccc2CCc2ccccc21 (stereo unspecified)
4 | > 1000 nM |  |  | COC(=O)C(CCn1ccnc1C)(c1ccccc1)c1ccccc1
5 | 71.3 nM | 9.96 | 710 nM | Cc1nccn1CCCCCC(C(N)=O)(c1ccccc1)c1ccccc1
6 | 43.7 nM | 3.39 | 148 nM | Cc1nccn1CCCCC(C(N)=O)(c1ccccc1)c1ccccc1
7 | 5150 nM | 1.14 | 5870 nM | CNC(=O)C(CCn1ccnc1C)(c1ccccc1)c1ccccc1
8 | 2.89 nM | 15.6 | 45.1 nM | Cc1nccn1CC(C)C(C(N)=O)(c1ccccc1)c1ccccc1 (stereo unspecified)
9 | 258 nM | 1.85 | 478 nM | Cc1nccn1CCC(C(=O)N(C)C)(c1ccccc1)c1ccccc1
10 | 9.85 nM | 16.3 | 161 nM | Cc1nccn1CCC(C(N)=O)(c1ccc(F)cc1)c1ccc(F)cc1
11 | 6.95 nM | 11.9 | 82.7 nM | Cc1nccn1CCC(C(=O)O)(c1ccccc1)c1ccccc1
12 | 394 nM |  |  | Cc1nccn1CCC(C(N)=O)(c1ccccc1)C(C)C (stereo unspecified)
13 | 24.6 nM | 30.3 | 743 nM | Cc1ccc(C(CCn2ccnc2C)(C(N)=O)c2ccccc2)cc1 (stereo unspecified)
14 | > 300 nM |  |  | Cc1nccn1CCC(C(N)=O)C1c2ccccc2Oc2ccccc21 (stereo unspecified)
15 | 16.7 nM | 3 | 50.1 nM | Cc1nccn1CCC(O)(c1ccccc1)c1ccccc1
16 | 16.9 nM | 10.3 | 174 nM | Cc1nccn1C(C)CC(C(N)=O)(c1ccccc1)c1ccccc1 (stereo unspecified)
17 | 1.14 nM | 17.6 | 20.1 nM | Cc1nccn1CCCC(C(N)=O)(c1ccccc1)c1ccccc1
18 | 2.86 nM | 17.5 | 50.1 nM | Cc1nccn1CCC(C(N)=O)(c1ccccc1)c1ccccn1 (stereo unspecified)
19 |  | 13 |  | Cc1nccn1CCC(C(N)=O)(c1ccccc1)c1ccccc1
20 | 10.4 nM | 1.49 | 15.5 nM | Cc1nccn1CCC(C#N)(c1ccccc1)c1ccccc1
21 | 1830 nM |  |  | Cc1nccn1CCC(C)(C(N)=O)c1ccccc1 (stereo unspecified)
